# Experimental data as given in US20230293535A1, “ERBB/BTK INHIBITORS” (Dizal (Jiangsu) Pharmaceutical Co., Ltd., priority 2018, published 2023).
# Structures can show the parent of a compound that is named as a salt. Where two headings read alike, the source gives them in different places.
# Key:
# [1] = molecular target: T1, human EGFR exon 20 H773_V774insNPH (Homo sapiens, UniProt P00533, INS773NPH); test: EGFR Exon20 NPH insertion cellular phosphorylation inhibition (MSD pEGFR Y1068/total EGFR); assay type: cell-based; details: Ba/F3 EGFR NPH ins cells, 4 h compound, p-EGFR(Y1068)/total EGFR;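 note: IL3-independent Ba/F3 cells with constitutively phosphorylated EGFR, compound exposure at 37 °C under 5% CO2, electrochemiluminescent MSD measurement of the p-EGFR to total EGFR ratio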
# T1 construct: host or cells: Ba/F3
# [2] = molecular target: T2, human EGFR exon 20 V769_D770insASV (Homo sapiens, UniProt P00533, INS769ASV); test: EGFR Exon20 ASV insertion cellular phosphorylation inhibition (MSD pEGFR Y1068/total EGFR); assay type: cell-based; details: Ba/F3 EGFR ASV ins cells, 4 h compound, p-EGFR(Y1068)/total EGFR;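 note: electrochemiluminescent readout on an MSD SECTOR Imager, IL3-independent transduced cells in medium with 1% FBS, compound concentration series at 37 °C and 5% CO2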
# T2 construct: expressed in transfected cells; host or cells: Ba/F3 (DSMZ ACC-300), lentiviral transduction, puromycin selection, IL3 depletion
# EGFR L858R&T790M = molecular target: T3, EGFR L858R&T790M (Homo sapiens, UniProt P00533, L858R/T790M); test: EGFR L858R and T790M cellular phosphorylation inhibition in NCI-H1975 (MSD); assay type: cell-based; details: NCI-H1975 cells, 4 h compound, p-EGFR(Y1068)/total EGFR; read-out: EGFR L858R and T790M mutation IC50;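 note: phosphorylated and total EGFR detected by electrochemiluminescence, cells exposed to compound in medium containing 1% FBS at 37 °C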
# T3 construct: host or cells: NCI-H1975
# [3] = molecular target: T4, human Her2 exon 20 insertion mutation YVMA (Homo sapiens, UniProt P04626, INS775YVMA); test: Her2 Exon 20 YVMA insertion cellular phosphorylation inhibition (MSD p-Her2 Y1248/total Her2); assay type: cell-based; details: Her2 YVMAins cells, 4 h compound;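 note: lentivirally transduced NIH-3T3 cells in 1% FBS medium, electrochemiluminescent MSD read-out, graded compound concentrations at 37 °C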
# T4 construct: expressed in transfected cells; host or cells: NIH-3T3, lentiviral transduction, puromycin selection
# WT EGFR = molecular target: T5, WT EGFR (Homo sapiens, UniProt P00533); test: WT EGFR cellular phosphorylation inhibition in A-431 (hEGF stimulated, MSD); assay type: cell-based; details: A431 cells, 4 h compound, then 100 ng/ml hEGF 10 min;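 note: electrochemiluminescence read-out of EGFR Tyr1068 phosphorylation expressed as ratio to total EGFR, cells kept in medium with 1% FBS, compounds tested as a concentration series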
# T5 construct: host or cells: A-431
# Ba/F3 EGFR NPH ins cells = test: Cell proliferation, Ba/F3 EGFR NPH ins (CellTiter-Glo, 72 h); assay type: cell-based; details: Ba/F3 EGFR, 72 h;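 note: IL3-independent cells carrying constitutively phosphorylated EGFR, compound dilution series, viable cells quantified by ATP luminescence, growth relative to DMSO wells after subtracting pre-dosing (day 0) baseline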
# Ba/F3 EGFR ASV ins cells = test: Cell proliferation, Ba/F3 EGFR ASV ins (CellTiter-Glo, 72 h); assay type: cell-based; details: Ba/F3 EGFR, 72 h;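 note: IL3-independent Ba/F3 cells transduced with EGFR V769_D770insASV, cellular ATP luminescence after compound exposure, growth relative to DMSO control with the day-0 baseline reading subtracted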
# Experimental: WT or mutant cells were seeded in 384 well plates at appropriate concentrations with corresponding growth media supplemented with 10% FBS, for each experiment, identical plates were prepared in duplicates, and the plates were incubated overnight. On the next day, one of each duplicated plates was dosed with tested compounds at a series of concentrations, and another one of the duplicated plate was analysied for G0 value. The dosed plates were incubate for another 72 h at 37° C. with 5% CO2 and the number of viable cells in each well of the G0 plates or the dosed plates were measured by CellTiter-Glo® Luminescent Cell Viability Assay (Promega). This assay is a luminescent method for determining the number viable cells through measurement of cellular ATP concentration by detection of luciferase activity. Detection reagents (15 µl) was dispensed into per well, and the plates were incubate for 30 min at room temperature. Then, the luminescence in each well was measured using the Envision plate reader (PerkinElmer). The percentage of proliferation was calculated based on the formula: %Proliferation= 100 × (G3 value of sample well-Go value)/(G3 value of DMSO control-Go value).
# [4] = test system: NCI-H1975 EGFR L858R/T790M cells; test: Cell proliferation, NCI-H1975 EGFR L858R/T790M (CellTiter-Glo, 72 h); assay type: cell-based; details: Homo sapiens, NCI-H1975, 72 h;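 note: viable cells quantified by luciferase-based ATP luminescence, proliferation expressed relative to DMSO-treated wells (100%) after subtracting a parallel plate read at the time of dosing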
# [5] = test system: Her2 exon 20 insertion YVMA transduced NIH-3T3 cell line; test: Cell proliferation, Her2 YVMAins NIH-3T3 (CellTiter-Glo, 72 h); assay type: cell-based; details: Mus musculus, NIH3T3, 72 h, Her2 YVMAins cells, 72 h proliferation; read-out: Her2 Exon 20 YVMA insertion GI50;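 note: viable cells quantified by ATP luminescence, growth over a day-zero baseline plate expressed as percent of DMSO control growth, compound dilution series in 10% FBS medium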
# WT EGFR cell line A-431 = test: Cell proliferation, WT EGFR A431 (CellTiter-Glo, 72 h); assay type: cell-based; details: Homo sapiens, A-431, 72 h;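 note: proliferation from a luminescent ATP viability signal, expressed as 100 × (treated minus time-zero plate) over (DMSO control minus time-zero plate), cells grown with 10% FBS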
# OCI-LY-10 cells = test: BTK (wt) cell proliferation, OCI-LY-10 (CellTiter-Glo, 72 h); assay type: cell-based; details: Homo sapiens, OCI-Ly10, 72 h, OCI-LY-10 cells, 72 h, CellTiter-Glo; read-out: BTK WT OCI-LY-10 GI50;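 note: viable cells quantified via cellular ATP luminescence, proliferation given as percent of DMSO control after subtracting a duplicate plate read at time of dosing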
# Experimental: OCI-LY-10 at 3,750 cells/well, TMD-8 and Ri-1 at 2,000 cells/well, and DB at 1,250 cells/well, respectively, were sorted into 384-well plates in RPMI1640 medium with 10% FBS. After overnight incubation, all cells were incubated with compound at a series of concentrations. Meanwhile, a duplicated plate of each cell line was prepared for measuring G0 value. The dosed plates were further incubated for 72 hours and the number of viable cells was measured by CellTiter-Glo® Luminescent Cell Viability Assay (Promega), a luminescent method for determining the number of viable cells through measurement of cellular ATP concentration using Envision plate reader (PerkinElmer). The percentage of proliferation was calculated as: % Proliferation = 100 × (G3 value of sample well - G0 value)/(G3 value of DMSO control - G0 value).
# TMD-8 cells = test: BTK (wt) cell proliferation, TMD-8 (CellTiter-Glo, 72 h); assay type: cell-based; details: Homo sapiens, TMD8, 72 h, TMD-8 cells, 72 h, CellTiter-Glo; read-out: BTK WT TMD-8 GI50;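 note: viable cells quantified by ATP-based luminescence, proliferation expressed as percent of DMSO control after subtracting a time-zero baseline plate read at dosing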
# Ri-1 cells = test: BTK (wt) cell proliferation, Ri-1 (CellTiter-Glo, 72 h); assay type: cell-based; details: Ri-1, 72 h, Ri-1 cells, 72 h, CellTiter-Glo; read-out: BTK WT Ri-1 GI50;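 note: viable cells quantified as cellular ATP luminescence, proliferation normalized to a time-zero plate and the DMSO control, compounds tested across a dilution series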
# DB cells = test: BTK (wt) cell proliferation, DB (CellTiter-Glo, 72 h); assay type: cell-based; details: Homo sapiens, DB, DB cells, CellTiter-Glo, read-out: Non-BCR activated DB GI50;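 note: DB cells in 384-well plates given a dilution series of compound, viable cells read by ATP luminescence, growth expressed versus DMSO control after subtracting a time-zero plate reading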
# [6] = In vitro human hepatocytes clearance assay; details: both, human, cryopreserved human hepatocytes (suspension), human hepatocytes Clint (µL/min/10^6cells), mixed gender human hepatocytes, incubation up to 100 min
# [7] = read-out: EGFR Exon20 NPH insertion GI50 (nM)
# [8] = read-out: EGFR Exon20 ASV insertion GI50 (nM)
# [9] = read-out: EGFR L858R and T790M mutation GI50 (nM)
# [10] = read-out: EGFR WT A431 GI50 (nM)
# [11] = Ba/F3 EGFR NPH ins, 72 h proliferation, read-out: EGFR Exon20 NPH insertion GI50
# [12] = Ba/F3 EGFR ASV ins, 72 h proliferation, read-out: EGFR Exon20 ASV insertion GI50
# [13] = NCI-H1975, 72 h proliferation, read-out: EGFR L858R and T790M mutation GI50
# [14] = A431, 72 h proliferation, read-out: EGFR WT A431 GI50
# T5 sequence (P00533 25-1210): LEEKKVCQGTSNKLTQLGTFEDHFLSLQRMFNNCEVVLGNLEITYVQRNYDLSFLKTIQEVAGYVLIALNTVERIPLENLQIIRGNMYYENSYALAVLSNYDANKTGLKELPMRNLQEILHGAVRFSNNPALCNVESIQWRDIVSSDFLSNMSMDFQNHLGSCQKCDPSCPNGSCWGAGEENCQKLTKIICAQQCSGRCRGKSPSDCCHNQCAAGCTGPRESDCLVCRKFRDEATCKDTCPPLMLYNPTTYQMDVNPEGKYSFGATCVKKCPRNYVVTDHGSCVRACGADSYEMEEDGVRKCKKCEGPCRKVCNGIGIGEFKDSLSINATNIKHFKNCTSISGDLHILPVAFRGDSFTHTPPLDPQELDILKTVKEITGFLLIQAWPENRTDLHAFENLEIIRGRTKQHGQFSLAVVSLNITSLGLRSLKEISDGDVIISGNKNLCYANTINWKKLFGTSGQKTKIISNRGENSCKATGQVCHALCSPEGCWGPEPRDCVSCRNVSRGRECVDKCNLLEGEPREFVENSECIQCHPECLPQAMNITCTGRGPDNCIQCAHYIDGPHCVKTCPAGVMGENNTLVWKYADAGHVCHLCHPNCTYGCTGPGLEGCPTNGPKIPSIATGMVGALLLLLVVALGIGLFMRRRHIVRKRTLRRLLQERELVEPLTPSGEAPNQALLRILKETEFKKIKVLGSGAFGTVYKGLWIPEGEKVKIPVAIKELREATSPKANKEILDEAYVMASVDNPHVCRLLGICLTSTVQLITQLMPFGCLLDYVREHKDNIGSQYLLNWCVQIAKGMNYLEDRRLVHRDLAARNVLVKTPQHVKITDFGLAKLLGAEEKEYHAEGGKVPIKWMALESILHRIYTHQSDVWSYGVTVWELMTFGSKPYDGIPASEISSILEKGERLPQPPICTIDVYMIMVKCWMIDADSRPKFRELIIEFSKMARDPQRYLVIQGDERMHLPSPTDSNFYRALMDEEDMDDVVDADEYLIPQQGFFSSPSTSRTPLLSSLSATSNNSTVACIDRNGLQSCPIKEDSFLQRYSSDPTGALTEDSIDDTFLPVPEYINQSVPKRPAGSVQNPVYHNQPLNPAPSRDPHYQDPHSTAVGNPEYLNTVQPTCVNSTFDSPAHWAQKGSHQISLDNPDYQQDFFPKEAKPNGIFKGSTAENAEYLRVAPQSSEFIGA
# T3 sequence (P00533 25-1210 T790M/L858R): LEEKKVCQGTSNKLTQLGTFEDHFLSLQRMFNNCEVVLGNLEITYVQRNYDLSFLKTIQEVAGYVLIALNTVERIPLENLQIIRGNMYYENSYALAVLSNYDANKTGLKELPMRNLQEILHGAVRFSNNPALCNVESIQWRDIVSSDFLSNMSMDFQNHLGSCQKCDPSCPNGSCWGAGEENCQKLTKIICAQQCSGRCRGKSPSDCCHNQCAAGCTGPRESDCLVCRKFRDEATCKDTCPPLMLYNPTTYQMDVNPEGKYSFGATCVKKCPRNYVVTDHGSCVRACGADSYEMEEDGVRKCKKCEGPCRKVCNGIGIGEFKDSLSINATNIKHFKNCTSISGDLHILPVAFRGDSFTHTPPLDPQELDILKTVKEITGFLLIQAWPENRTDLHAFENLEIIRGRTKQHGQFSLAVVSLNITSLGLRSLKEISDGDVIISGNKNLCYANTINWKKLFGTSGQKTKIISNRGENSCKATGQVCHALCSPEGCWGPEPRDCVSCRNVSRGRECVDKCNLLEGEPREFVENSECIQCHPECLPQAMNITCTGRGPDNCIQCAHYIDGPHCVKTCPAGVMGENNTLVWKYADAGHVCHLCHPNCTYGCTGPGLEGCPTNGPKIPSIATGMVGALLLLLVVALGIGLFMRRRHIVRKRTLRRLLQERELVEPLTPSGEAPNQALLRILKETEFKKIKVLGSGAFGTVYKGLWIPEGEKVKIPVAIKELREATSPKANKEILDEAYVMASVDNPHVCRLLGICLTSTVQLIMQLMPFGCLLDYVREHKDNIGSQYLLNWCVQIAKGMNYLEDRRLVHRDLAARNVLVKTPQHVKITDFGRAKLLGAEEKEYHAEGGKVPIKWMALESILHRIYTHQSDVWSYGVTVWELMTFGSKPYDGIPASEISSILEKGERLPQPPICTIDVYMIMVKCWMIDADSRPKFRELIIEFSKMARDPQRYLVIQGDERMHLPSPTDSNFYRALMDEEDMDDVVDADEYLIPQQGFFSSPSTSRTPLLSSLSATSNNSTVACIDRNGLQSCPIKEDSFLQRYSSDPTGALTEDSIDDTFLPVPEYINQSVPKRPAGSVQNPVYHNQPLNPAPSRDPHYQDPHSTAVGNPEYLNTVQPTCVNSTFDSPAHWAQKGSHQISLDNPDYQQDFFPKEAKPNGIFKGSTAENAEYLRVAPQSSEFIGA
# T4 sequence (P04626 with tags, fused parts or gaps INS775YVMA): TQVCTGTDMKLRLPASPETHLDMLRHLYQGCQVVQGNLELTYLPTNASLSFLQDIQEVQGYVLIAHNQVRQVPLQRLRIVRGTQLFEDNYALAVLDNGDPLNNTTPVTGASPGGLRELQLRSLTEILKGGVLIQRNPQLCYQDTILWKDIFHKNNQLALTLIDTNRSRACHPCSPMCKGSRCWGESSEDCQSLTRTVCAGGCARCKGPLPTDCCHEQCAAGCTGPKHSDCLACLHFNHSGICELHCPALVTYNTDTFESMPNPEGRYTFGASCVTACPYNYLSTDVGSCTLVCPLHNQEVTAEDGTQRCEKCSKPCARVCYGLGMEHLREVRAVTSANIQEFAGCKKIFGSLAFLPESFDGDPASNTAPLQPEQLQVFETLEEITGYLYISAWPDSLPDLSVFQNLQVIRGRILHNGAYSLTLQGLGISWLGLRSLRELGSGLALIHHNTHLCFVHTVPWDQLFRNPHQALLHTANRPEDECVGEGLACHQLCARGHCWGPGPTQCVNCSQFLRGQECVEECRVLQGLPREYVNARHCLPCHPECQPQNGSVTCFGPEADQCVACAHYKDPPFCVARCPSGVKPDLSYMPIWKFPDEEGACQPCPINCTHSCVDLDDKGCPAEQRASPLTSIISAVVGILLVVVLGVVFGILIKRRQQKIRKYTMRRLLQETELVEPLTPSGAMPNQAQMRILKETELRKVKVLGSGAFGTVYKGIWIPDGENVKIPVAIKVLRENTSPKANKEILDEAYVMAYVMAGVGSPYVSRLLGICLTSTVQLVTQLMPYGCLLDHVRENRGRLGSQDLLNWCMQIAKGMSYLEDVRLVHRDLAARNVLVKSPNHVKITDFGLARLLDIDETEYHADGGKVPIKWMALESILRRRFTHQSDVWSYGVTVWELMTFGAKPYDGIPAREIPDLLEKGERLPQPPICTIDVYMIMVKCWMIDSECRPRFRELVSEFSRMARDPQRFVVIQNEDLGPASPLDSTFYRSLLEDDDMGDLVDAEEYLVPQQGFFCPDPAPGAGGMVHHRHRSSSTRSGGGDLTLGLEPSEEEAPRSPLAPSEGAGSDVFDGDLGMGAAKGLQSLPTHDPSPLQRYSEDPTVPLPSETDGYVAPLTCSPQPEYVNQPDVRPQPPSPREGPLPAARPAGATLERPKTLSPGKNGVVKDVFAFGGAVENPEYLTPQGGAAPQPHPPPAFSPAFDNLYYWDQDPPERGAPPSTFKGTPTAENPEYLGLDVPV
# T2 sequence (P00533 with tags, fused parts or gaps INS769ASV): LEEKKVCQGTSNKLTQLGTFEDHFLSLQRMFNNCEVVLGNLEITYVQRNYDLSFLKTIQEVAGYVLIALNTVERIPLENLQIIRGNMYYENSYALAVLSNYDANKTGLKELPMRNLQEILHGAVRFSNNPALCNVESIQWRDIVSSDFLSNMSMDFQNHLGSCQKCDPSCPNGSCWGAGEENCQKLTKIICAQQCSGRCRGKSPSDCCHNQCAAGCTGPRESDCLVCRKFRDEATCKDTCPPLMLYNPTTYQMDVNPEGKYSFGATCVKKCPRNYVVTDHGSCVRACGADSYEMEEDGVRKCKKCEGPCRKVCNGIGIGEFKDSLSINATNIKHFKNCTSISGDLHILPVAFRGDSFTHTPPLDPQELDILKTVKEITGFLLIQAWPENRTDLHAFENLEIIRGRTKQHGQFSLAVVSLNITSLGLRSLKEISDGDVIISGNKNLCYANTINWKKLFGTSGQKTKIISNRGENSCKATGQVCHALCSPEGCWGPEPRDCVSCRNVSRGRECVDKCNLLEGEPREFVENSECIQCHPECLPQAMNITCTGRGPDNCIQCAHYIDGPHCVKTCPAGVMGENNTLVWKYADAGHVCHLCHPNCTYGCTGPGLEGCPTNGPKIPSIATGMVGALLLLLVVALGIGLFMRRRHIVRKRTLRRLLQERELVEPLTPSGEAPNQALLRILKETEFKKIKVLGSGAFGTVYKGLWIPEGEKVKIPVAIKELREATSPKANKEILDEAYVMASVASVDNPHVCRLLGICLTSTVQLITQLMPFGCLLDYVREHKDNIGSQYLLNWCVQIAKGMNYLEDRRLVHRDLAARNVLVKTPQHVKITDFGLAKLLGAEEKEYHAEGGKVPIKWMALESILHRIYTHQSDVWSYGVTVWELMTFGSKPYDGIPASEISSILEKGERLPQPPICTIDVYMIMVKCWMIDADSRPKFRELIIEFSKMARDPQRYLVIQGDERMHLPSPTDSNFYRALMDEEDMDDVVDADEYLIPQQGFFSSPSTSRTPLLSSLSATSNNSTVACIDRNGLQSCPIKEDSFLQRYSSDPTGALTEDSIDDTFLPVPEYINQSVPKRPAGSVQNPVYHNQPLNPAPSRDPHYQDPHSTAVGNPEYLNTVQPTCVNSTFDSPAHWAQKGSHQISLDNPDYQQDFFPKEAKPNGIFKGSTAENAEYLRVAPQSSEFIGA
smiles,measurement,setting,value
"C=CC(=O)Nc1cc(Nc2nccc(Nc3cc(Cl)c(F)cc3C(C)(C)O)n2)c(OC)cc1N1C[C@H]2CN(C)[C@H]2C1 [Compound 89, N-(5-(4-(5-chloro-4-fluoro-2-(2-hydroxypropan-2-yl)phenylamino)pyrimidin-2-ylamino)-4-methoxy-2-((1R,5R)-6-methyl-3,6-diazabicyclo[3.2.0]heptan-3-yl)phenyl)acrylamide formic acid salt]",IC50,[1],14.8 nM
same,IC50,[2],23 nM
same,IC50,EGFR L858R&T790M,0.7 nM
same,IC50,[3],6.8 nM
same,IC50,WT EGFR,148 nM
same,GI50,Ba/F3 EGFR NPH ins cells; [7],63.8 nM
same,GI50,Ba/F3 EGFR ASV ins cells; [8],115 nM
same,GI50,[4]; [9],2.8 nM
same,GI50,[5],158 nM
same,GI50,WT EGFR cell line A-431; [10],63.1 nM
same,GI50,OCI-LY-10 cells,11.4 nM
same,GI50,TMD-8 cells,9.86 nM
same,GI50,Ri-1 cells,17.5 nM
same,GI50,DB cells,> 3000 nM
same,hepatocyte CLint at 1 µM,[6],3.84 µL/min/1e6 cells
"C=CC(=O)Nc1cc(Nc2nccc(Nc3cc(Cl)c(F)cc3C(C)(C)O)n2)c(OC)cc1N1C[C@@H](C)C[C@@H]1CN(C)C [Compound 91, N-(5-(4-(5-chloro-4-fluoro-2-(2-hydroxypropan-2-yl)phenylamino)pyrimidin-2-ylamino)-2-((2R,4S)-2-((dimethylamino)methyl)-4-methylpyrrolidin-l-yl)-4-methoxyphenyl) acrylamide]",IC50,[1],26.2 nM
same,IC50,[2],41.2 nM
same,IC50,EGFR L858R&T790M,1.5 nM
same,IC50,[3],22.5 nM
same,IC50,WT EGFR,183 nM
same,GI50,Ba/F3 EGFR NPH ins cells; [11],64.6 nM
same,GI50,Ba/F3 EGFR ASV ins cells; [12],69.6 nM
same,GI50,[4]; [13],2.2 nM
same,GI50,[5],148 nM
same,GI50,WT EGFR cell line A-431; [14],31.5 nM
same,GI50,OCI-LY-10 cells,86.8 nM
same,GI50,TMD-8 cells,58 nM
same,GI50,Ri-1 cells,79.4 nM
same,GI50,DB cells,> 3000 nM
same,hepatocyte CLint at 1 µM,[6],8.57 µL/min/1e6 cells
"C=CC(=O)Nc1cc(Nc2nccc(Nc3cc(Cl)c(F)cc3C(C)(O)C(F)(F)F)n2)c(OC)cc1N1CC[C@@H](N(C)C)C1 (stereo partly drawn) [Compound 92, N-(5-(4-(5-chloro-4-fluoro-2-(1,1,1-trifluoro-2-hydroxypropan-2-yl)phenylamino)pyrimidin-2-ylamino)-2-((R)-3-(dimethylamino)pyrrolidin-1-yl)-4-methoxyphenyl) acrylamide]",IC50,[1],79.9 nM
same,IC50,[2],71.2 nM
same,IC50,EGFR L858R&T790M,1.7 nM
same,IC50,[3],26 nM
same,IC50,WT EGFR,765 nM
same,GI50,Ba/F3 EGFR NPH ins cells; [11],84.7 nM
same,GI50,Ba/F3 EGFR ASV ins cells; [12],92.1 nM
same,GI50,[4]; [13],4.9 nM
same,GI50,[5],212 nM
same,GI50,WT EGFR cell line A-431; [14],40.6 nM
same,GI50,OCI-LY-10 cells,228 nM
same,GI50,TMD-8 cells,63.8 nM
same,GI50,Ri-1 cells,146 nM
same,GI50,DB cells,1200 nM
"C=CC(=O)Nc1cc(Nc2ncnc(Nc3ccc4[nH]ccc4c3C(C)(C)O)n2)c(OC)cc1N(C)CCN(C)C [Compound 94, N-(2-((2-(dimethylamino)ethyl)(methyl)amino)-5-(4-(4-(2-hydroxypropan-2-yl)-1H-indol-5-ylamino)-1,3,5-triazin-2-ylamino)-4-methoxyphenyl)acrylamide]",IC50,[1],28.5 nM
same,IC50,[2],17.7 nM
same,IC50,EGFR L858R&T790M,0.7 nM
same,IC50,[3],4.4 nM
same,IC50,WT EGFR,28.9 nM
same,GI50,Ba/F3 EGFR NPH ins cells; [11],94.9 nM
same,GI50,Ba/F3 EGFR ASV ins cells; [12],80.9 nM
same,GI50,[4]; [13],6.4 nM
same,GI50,[5],141 nM
same,GI50,WT EGFR cell line A-431; [14],16.5 nM
same,GI50,OCI-LY-10 cells,21.6 nM
same,GI50,TMD-8 cells,94.8 nM
same,GI50,Ri-1 cells,209 nM
same,GI50,DB cells,> 3000 nM
"C=CC(=O)Nc1cc(Nc2ncnc(Nc3cc4cc[nH]c4cc3C(C)(C)O)n2)c(OC)cc1N(C)CCN(C)C [Compound 95, N-(2-((2-(dimethylamino)ethyl)(methyl)amino)-5-(4-(6-(2-hydroxypropan-2-yl)-1H-indol-5-ylamino)-1,3,5-triazin-2-ylamino)-4-methoxyphenyl)acrylamide]",IC50,[1],7.1 nM
same,IC50,[2],6.2 nM
same,IC50,EGFR L858R&T790M,0.3 nM
same,IC50,[3],2.2 nM
same,IC50,WT EGFR,3.5 nM
same,GI50,Ba/F3 EGFR NPH ins cells; [11],20.5 nM
same,GI50,Ba/F3 EGFR ASV ins cells; [12],16 nM
same,GI50,[4]; [13],3.7 nM
same,GI50,[5],15.8 nM
same,GI50,WT EGFR cell line A-431; [14],2.9 nM
same,GI50,OCI-LY-10 cells,0.29 nM
same,GI50,TMD-8 cells,1.16 nM
same,GI50,Ri-1 cells,971 nM
same,GI50,DB cells,> 3000 nM
"C=CC(=O)Nc1cc(Nc2nccc(Nc3cc(Cl)c(F)cc3C(C)(C)O)n2)c(OC)cc1N1C[C@@H]2CN(C)[C@@H]2C1 [Compound 97, N-(5-(4-(5-chloro-4-fluoro-2-(2-hydroxypropan-2-yl)phenylamino)pyrimidin-2-ylamino)-4-methoxy-2-((1 S,5 S)-6-methyl-3,6-diazabicyclo[3.2.0]heptan-3-yl)phenyl)acrylamide formic acid salt]",IC50,[1],17.4 nM
same,IC50,[2],14.4 nM
same,IC50,EGFR L858R&T790M,0.7 nM
same,IC50,[3],2.8 nM
same,IC50,WT EGFR,160 nM
same,GI50,Ba/F3 EGFR NPH ins cells; [7],74.2 nM
same,GI50,Ba/F3 EGFR ASV ins cells; [8],86.7 nM
same,GI50,[4]; [9],3.4 nM
same,GI50,[5],93.9 nM
same,GI50,WT EGFR cell line A-431; [10],38 nM
same,GI50,OCI-LY-10 cells,24 nM
same,GI50,TMD-8 cells,18.6 nM
same,GI50,Ri-1 cells,54.7 nM
same,GI50,DB cells,> 3000 nM
same,hepatocyte CLint at 1 µM,[6],4.25 µL/min/1e6 cells
"C=CC(=O)Nc1cc(Nc2nccc(Nc3cc(Cl)c(F)cc3C(C)(C)O)n2)c(OC)cc1N1CCC[C@@H]1CN1CCC1 [Compound 98, (R)-N-(2-(2-(azetidin-1-ylmethyl)pyrrolidin-1-yl)-5-(4-(5-chloro-4-fluoro-2-(2-hydroxypropan-2-yl)phenylamino)pyrimidin-2-ylamino)-4-methoxyphenyl) acrylamide formic acid salt]",IC50,[1],19.1 nM
same,IC50,[2],21.4 nM
same,IC50,EGFR L858R&T790M,0.9 nM
same,IC50,[3],3.1 nM
same,IC50,WT EGFR,190 nM
same,GI50,Ba/F3 EGFR NPH ins cells; [7],112 nM
same,GI50,Ba/F3 EGFR ASV ins cells; [8],129 nM
same,GI50,[4]; [9],3.1 nM
same,GI50,[5],135 nM
same,GI50,WT EGFR cell line A-431; [10],87.8 nM
same,GI50,OCI-LY-10 cells,115 nM
same,GI50,TMD-8 cells,71.5 nM
same,GI50,Ri-1 cells,108 nM
same,GI50,DB cells,> 3000 nM
same,hepatocyte CLint at 1 µM,[6],7.6 µL/min/1e6 cells
